Measured values from patent publication US20230295234A1, “ANTIMICROBIAL PEPTIDOMIMETICS” (SPEXIS AG, priority 2020, published 2023).
Bridge positions count the residues as written; N and C are the ends. Square brackets hold non-standard residues; d marks the D form. Peptide text beside a SMILES is read from it. Pro(4R-NH2) = N[C@H]1CN[C@H](C(=O)O)C1; Gly(N-2-aminoethyl) = NCCNCC(=O)O; Pen = CC(C)(S)[C@H](N)C(=O)O; dDab = NCC[C@@H](N)C(=O)O; Nle = CCCC[C@H](N)C(=O)O; Dab = NCC[C@H](N)C(=O)O

Experiments:
[1] = tested on: Escherichia coli MCR-1 Af 45; conditions: MCR-1 Af 45
Description: (§1) Lyophilized peptides were weighed on a Microbalance (Mettler MT5) and dissolved in sterile water to a final concentration of 1 mg/mL. Stock solutions were kept at +4° C., light protected.
(§2) Colonies of the microorganisms were diluted in saline (0.85%, NaCl) and adjusted using a McFarland reader (bioMérieux SA, Marcy-l'Etoile, France) to 0.5 McFarland standard. Subsequently, the bacterial suspension was diluted in Mueller-Hinton II (MHII, cation adjusted) broth to give approximately 5×10^5 colony forming units (CFU/mL).
(§3) 10^6 colony forming units (CFU)/mL. Aliquots (90 μl) of inoculate were added to 10 μl of water+P-80 (Polysorbate 80, 0.002% final concentration) containing the peptide in serial two-fold dilutions at 10 fold final concentration. The following microorganisms were used to determine antibiotic selectivity of the peptides: Escherichia coli ATCC 25922, Escherichia coli MCR-1 Af 45 and Klebsiella pneumoniae SSI3010.

[2] = tested on: Klebsiella pneumoniae SSI3010; conditions: SSI3010
Description: as §1, §2, §3

[3] = tested on: Escherichia coli ATCC 25922; conditions: ATCC 25922
Description: as §1, §2, §3

[4] = tested on: human red blood cells (hRBC); assay: Hemolysis of human red blood cells; format: cell-based; conditions: red cells of human, 1 h
Description: Lyophilized peptides were weighed on a Microbalance (Mettler MT5) and dissolved in sterile water to a final concentration of 1 mg/mL. Stock solutions were kept at +4° C., light protected. The peptides were tested for their hemolytic activity against human red blood cells (hRBC). Fresh hRBC were washed three times with phosphate buffered saline (PBS) and centrifuged for 5 min at 3000×g. Compounds (200 μg/mL) were incubated with 20% hRBC (v/v) for 1 h at 37° C. and shaking at 300 rpm. […] The samples were centrifuged, the supernatants were 8-fold diluted in PBS buffer and the optical densities (OD) were measured at 540 nm. […] Percent hemolysis was calculated as follows: (OD540peptide/OD540H2O)×100%.

| Structure (SMILES) | Escherichia coli MCR-1 Af 45 MIC [1] | Klebsiella pneumoniae SSI3010 MIC [2] | Escherichia coli ATCC 25922 MIC [3] | Hemolysis at 0.2 g/L [4] |
| --- | --- | --- | --- | --- |
| CCCC[C@H](NC(=O)[C@H](CCCNC(=N)N)NC(=O)[C@H](CCN)NC(=O)[C@@H]1CSSC(C)(C)[C@H](NC(=O)[C@H](Cc2ccc(O)cc2)NC(=O)[C@@H](NC(=O)[C@@H](NC(=O)[C@@H]2C[C@@H](N)CN2C(=O)[C@@H](NC(=O)[C@@H]2CCCN2)C(C)C)[C@@H](C)CC)[C@@H](C)CC)C(=O)N[C@@H](CC(N)=O)C(=O)N[C@@H](CCCNC(=N)N)C(=O)N[C@@H](CCN)C(=O)N[C@@H]([C@@H](C)O)C(=O)N[C@H](CCN)C(=O)N[C@@H](CCCCN)C(=O)N1)C(=O)O [Example 5, Pro-Val-Pro((4R)NH2)-Ile-Ile-Tyr-Pen-Asn-Arg-Dab-Thr-^DDab-Lys-Cys-Dab-Arg-Nle] (HELM PEPTIDE1{P.V.[N[C@@H]1C[C@@H](C(=O)[*:2])N([*:1])C1].I.I.Y.[Pen].N.R.[Dab].T.[NCC[C@@H](N[*:1])C(=O)[*:2]].K.C.[Dab].R.[Nle]}$PEPTIDE1,PEPTIDE1,7:R3-14:R3$$$V2.0) | 0.0625 µg/mL | 0.25 µg/mL | 0.0625 µg/mL | 0% |
| CCCC[C@H](NC(=O)[C@H](CCCNC(=N)N)NC(=O)[C@H](CCN)NC(=O)[C@@H]1CSSC(C)(C)[C@H](NC(=O)[C@H](Cc2ccc(O)cc2)NC(=O)[C@@H](NC(=O)[C@@H](NC(=O)[C@@H]2CCCN2C(=O)[C@@H](NC(=O)CNCCN)C(C)C)[C@@H](C)CC)[C@@H](C)CC)C(=O)N[C@@H](CC(N)=O)C(=O)N[C@@H](CCCNC(=N)N)C(=O)N[C@@H](CCN)C(=O)N[C@@H]([C@@H](C)O)C(=O)N[C@H](CCN)C(=O)N[C@@H](CCCCN)C(=O)N1)C(=O)O [Example 6, Ndab-Val-Pro-Ile-Ile-Tyr-Pen-Asn-Arg-Dab-Thr-^DDab-Lys-Cys-Dab-Arg-Nle] (HELM PEPTIDE1{[NCCNCC(=O)[*:2]].V.P.I.I.Y.[Pen].N.R.[Dab].T.[NCC[C@@H](N[*:1])C(=O)[*:2]].K.C.[Dab].R.[Nle]}$PEPTIDE1,PEPTIDE1,7:R3-14:R3$$$V2.0) | 0.125 µg/mL | 0.25 µg/mL | 0.125 µg/mL | 0% |
| CCCC[C@H](NC(=O)[C@H](CCCNC(=N)N)NC(=O)[C@H](CCN)NC(=O)[C@@H]1CSSC(C)(C)[C@H](NC(=O)[C@H](Cc2ccc(O)cc2)NC(=O)[C@@H](NC(=O)[C@@H](NC(=O)CN(CCN)C(=O)[C@@H](NC(=O)[C@@H]2CCCN2)C(C)C)[C@@H](C)CC)[C@@H](C)CC)C(=O)N[C@@H](CC(N)=O)C(=O)N[C@@H](CCCNC(=N)N)C(=O)N[C@@H](CCN)C(=O)N[C@@H]([C@@H](C)O)C(=O)N[C@H](CCN)C(=O)N[C@@H](CCCCN)C(=O)N1)C(=O)O [Example 7, Pro-Val-Ndab-Ile-Ile-Tyr-Pen-Asn-Arg-Dab-Thr-^DDab-Lys-Cys-Dab-Arg-Nle] (HELM PEPTIDE1{P.V.[NCCN(CC(=O)[*:2])[*:1]].I.I.Y.[Pen].N.R.[Dab].T.[NCC[C@@H](N[*:1])C(=O)[*:2]].K.C.[Dab].R.[Nle]}$PEPTIDE1,PEPTIDE1,7:R3-14:R3$$$V2.0) | 0.25 µg/mL | 0.25 µg/mL | 0.125 µg/mL | 0% |
| CCCC[C@H](NC(=O)[C@H](CCCNC(=N)N)NC(=O)[C@H](CCN)NC(=O)[C@@H]1CSSC(C)(C)[C@H](NC(=O)[C@H](Cc2ccc(O)cc2)NC(=O)[C@@H](NC(=O)[C@@H](NC(=O)[C@@H]2C[C@@H](N)CN2C(=O)[C@@H](NC(=O)[C@@H]2C[C@@H](N)CN2)C(C)C)[C@@H](C)CC)[C@@H](C)CC)C(=O)N[C@@H](CC(N)=O)C(=O)N[C@@H](CCCNC(=N)N)C(=O)N[C@@H](CCN)C(=O)N[C@@H]([C@@H](C)O)C(=O)N[C@H](CCN)C(=O)N[C@@H](CCCCN)C(=O)N1)C(=O)O [Example 8, Pro((4R)NH2)-Val-Pro((4R)NH2)-Ile-Ile-Tyr-Pen-Asn-Arg-Dab-Thr-^DDab-Lys-Cys-Dab-Arg-Nle] (H-[Pro(4R-NH2)]V[Pro(4R-NH2)]IIY[Pen]NR[Dab]T[dDab]KC[Dab]R[Nle]-OH; disulfide 7-14) | 0.0625 µg/mL | 0.125 µg/mL | 0.0625 µg/mL | 0% |
| CCCC[C@H](NC(=O)[C@H](CCCNC(=N)N)NC(=O)[C@H](CCN)NC(=O)[C@@H]1CSSC(C)(C)[C@H](NC(=O)[C@H](Cc2ccc(O)cc2)NC(=O)[C@@H](NC(=O)[C@@H](NC(=O)[C@@H]2C[C@@H](N)CN2C(=O)[C@@H](NC(=O)[C@@H]2C[C@@H](N)CN2)C(C)C)[C@@H](C)CC)[C@@H](C)O)C(=O)N[C@@H](CC(N)=O)C(=O)N[C@@H](CCCNC(=N)N)C(=O)N[C@@H](CCN)C(=O)N[C@@H]([C@@H](C)O)C(=O)N[C@H](CCN)C(=O)N[C@@H](CCCCN)C(=O)N1)C(=O)O [Example 9, Pro((4R)NH2)-Val-Pro((4R)NH2)-Ile-Thr-Tyr-Pen-Asn-Arg-Dab-Thr-^DDab-Lys-Cys-Dab-Arg-Nle] (H-[Pro(4R-NH2)]V[Pro(4R-NH2)]ITY[Pen]NR[Dab]T[dDab]KC[Dab]R[Nle]-OH; disulfide 7-14) | 0.0625 µg/mL | 0.125 µg/mL | 0.0625 µg/mL | 0% |
| CCCC[C@H](NC(=O)[C@H](CCCNC(=N)N)NC(=O)[C@H](CCN)NC(=O)[C@@H]1CSSC(C)(C)[C@H](NC(=O)[C@H](Cc2ccc(O)cc2)NC(=O)[C@@H](NC(=O)[C@@H](NC(=O)CN(CCN)C(=O)[C@@H](NC(=O)[C@@H]2C[C@@H](N)CN2)C(C)C)[C@@H](C)CC)[C@@H](C)CC)C(=O)N[C@@H](CC(N)=O)C(=O)N[C@@H](CCCNC(=N)N)C(=O)N[C@@H](CCN)C(=O)N[C@@H]([C@@H](C)O)C(=O)N[C@H](CCN)C(=O)N[C@@H](CCCCN)C(=O)N1)C(=O)O [Example 10, Pro((4R)NH2)-Val-Ndab-Ile-Ile-Tyr-Pen-Asn-Arg-Dab-Thr-^DDab-Lys-Cys-Dab-Arg-Nle] (H-[Pro(4R-NH2)]V[Gly(N-2-aminoethyl)]IIY[Pen]NR[Dab]T[dDab]KC[Dab]R[Nle]-OH; disulfide 7-14) | 0.125 µg/mL | 0.25 µg/mL | 0.125 µg/mL | 0% |
| CCCC[C@H](NC(=O)[C@H](CCCNC(=N)N)NC(=O)[C@H](CCN)NC(=O)[C@@H]1CSSC(C)(C)[C@H](NC(=O)[C@H](Cc2ccc(O)cc2)NC(=O)[C@@H](NC(=O)[C@@H](NC(=O)[C@@H]2C[C@@H](N)CN2C(=O)[C@@H](NC(=O)CNCCN)C(C)C)[C@@H](C)CC)[C@@H](C)CC)C(=O)N[C@@H](CC(N)=O)C(=O)N[C@@H](CCCNC(=N)N)C(=O)N[C@@H](CCN)C(=O)N[C@@H]([C@@H](C)O)C(=O)N[C@H](CCN)C(=O)N[C@@H](CCCCN)C(=O)N1)C(=O)O [Example 11, Ndab-Val-Pro((4R)NH2)-Ile-Ile-Tyr-Pen-Asn-Arg-Dab-Thr-^DDab-Lys-Cys-Dab-Arg-Nle] (H-[Gly(N-2-aminoethyl)]V[Pro(4R-NH2)]IIY[Pen]NR[Dab]T[dDab]KC[Dab]R[Nle]-OH; disulfide 7-14) | ≤0.03125 µg/mL | 0.125 µg/mL | 0.0625 µg/mL | 0% |
| CCCC[C@H](NC(=O)[C@H](CCCNC(=N)N)NC(=O)[C@H](CCN)NC(=O)[C@@H]1CSSC(C)(C)[C@H](NC(=O)[C@H](Cc2ccc(O)cc2)NC(=O)[C@@H](NC(=O)[C@@H](NC(=O)CN(CCN)C(=O)[C@@H](NC(=O)CNCCN)C(C)C)[C@@H](C)CC)[C@@H](C)O)C(=O)N[C@@H](CC(N)=O)C(=O)N[C@@H](CCCNC(=N)N)C(=O)N[C@@H](CCN)C(=O)N[C@@H]([C@@H](C)O)C(=O)N[C@H](CCN)C(=O)N[C@@H](CCCCN)C(=O)N1)C(=O)O [Example 12, Ndab-Val-Ndab-Ile-Thr-Tyr-Pen-Asn-Arg-Dab-Thr-^DDab-Lys-Cys-Dab-Arg-Nle] (H-[Gly(N-2-aminoethyl)]V[Gly(N-2-aminoethyl)]ITY[Pen]NR[Dab]T[dDab]KC[Dab]R[Nle]-OH; disulfide 7-14) | 0.0625 µg/mL | 0.25 µg/mL | 0.25 µg/mL | 0% |
